Assay [1] has as its target T1, human Gcg receptor (Homo sapiens, UniProt P47871).
T1 construct: expressed in transfected cells; crude membranes
Description: [125I]-Glucagon binding (SPA), human Gcg receptor. The following applies: read-out: hGLcgR Ki, nM (SEM, n). In a few lines:
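Cell pellets were lysed in hypotonic Tris buffer, pH 7.5, homogenized, and spun at low then high speed to give crude membranes. Ki was derived from the fitted IC50.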

In assay [2] the target is T2, human GIP receptor (Homo sapiens, UniProt P48546).
T2 construct: expressed in transfected cells; crude membranes
T2 sequence (P48546 22-466): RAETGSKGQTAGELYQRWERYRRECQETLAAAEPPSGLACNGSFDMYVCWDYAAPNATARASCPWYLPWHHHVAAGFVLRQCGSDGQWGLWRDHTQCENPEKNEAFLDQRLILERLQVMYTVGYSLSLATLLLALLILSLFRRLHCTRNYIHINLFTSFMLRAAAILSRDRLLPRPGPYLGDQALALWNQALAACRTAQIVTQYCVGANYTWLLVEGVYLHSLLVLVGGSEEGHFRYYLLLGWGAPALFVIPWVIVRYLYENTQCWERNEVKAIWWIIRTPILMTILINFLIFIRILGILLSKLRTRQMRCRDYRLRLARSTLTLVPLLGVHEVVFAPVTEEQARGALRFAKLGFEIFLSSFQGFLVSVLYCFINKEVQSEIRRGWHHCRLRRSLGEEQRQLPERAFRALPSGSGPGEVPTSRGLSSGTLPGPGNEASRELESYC
Kind of assay: [125I]-GIP binding (SPA), human GIP receptor. To be noted: read-out: hGIPR Ki, nM (SEM, n).

Assay [3] concerns the target human GLP-1 receptor (GLP-1R) (Homo sapiens, UniProt P43220). Description: cAMP pharmacological functional assay in presence of casein, hGLP-1R. It counts as cell-based. To be noted: HEK293 cells expressing hGLP-1R, 0.1% Casein, geometric mean; read-out: hGLP1R cAMP Rel EC50 nM (SEM, n).
Assay [4] deals with T3, gastric inhibitory peptide receptor (GIPR) (Homo sapiens, UniProt P48546).
T3 sequence (P48546 22-466): T2 sequence (P48546 22-466)
Kind of assay: cAMP pharmacological functional assay in presence of casein, hGIPR. It counts as cell-based. To be noted: HEK293 cells expressing hGIPR, 0.1% Casein, geometric mean; read-out: hGIPR cAMP Rel EC50 nM (SEM, n).

Assay [5] deals with human GLP-1R (Homo sapiens, UniProt P43220). Description: [125I]-GLP-1 binding (SPA), human GLP-1 receptor. Set-up: expressed in transfected cells; crude membranes. The following applies: read-out: hGLP1R Ki, (nM) (SEM, n). In short, it runs like this: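 Membranes: hypotonic lysis (50 mM Tris HCl, pH 7.5, protease inhibitors), Potter-Elvehjem homogenization, high-speed pellet (35000×g 1 h or 25000×g 30 min, 4° C.). Buffer: 25 mM HEPES pH 7.4, 2.5 mM CaCl2, 1 mM MgCl2. Four-parameter IC50 fit; Ki as geometric mean ± SEM.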
Sequence of human GLP-1R (P43220 24-463): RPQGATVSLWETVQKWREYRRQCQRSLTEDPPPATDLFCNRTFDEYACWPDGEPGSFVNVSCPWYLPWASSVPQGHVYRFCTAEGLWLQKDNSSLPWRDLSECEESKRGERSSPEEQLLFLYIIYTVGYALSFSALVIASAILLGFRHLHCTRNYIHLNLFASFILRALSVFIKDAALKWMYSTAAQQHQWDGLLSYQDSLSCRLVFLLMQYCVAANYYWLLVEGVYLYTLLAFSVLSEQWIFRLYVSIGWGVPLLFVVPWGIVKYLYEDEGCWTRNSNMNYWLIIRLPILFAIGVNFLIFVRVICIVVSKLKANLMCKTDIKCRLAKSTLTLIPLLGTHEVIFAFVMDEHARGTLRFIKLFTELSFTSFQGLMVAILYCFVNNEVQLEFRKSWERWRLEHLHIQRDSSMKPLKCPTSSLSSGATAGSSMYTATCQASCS

Molecules are shown by their SMILES. Numbered stars: 1 amine (or outer) side, 2 acyl side, 3 side chain; on linkers, the order of the positions; unused ones are H or OH. Square brackets hold non-standard residues; d marks the D form. Side chains are listed from the residue outwards. Peptide text beside a SMILES is read from it. * marks the point of attachment. C20 diacid = O=C(O)CCCCCCCCCCCCCCCCCCC(=O)*; γGlu = O=C(O)[C@H](CCC(=O)[*:2])N[*:1]; AEEA = NCCOCCOCC(=O)O; Aib = CC(C)(N)C(=O)O

Sequence of human GLP-1 receptor (GLP-1R) (P43220 24-463): as above
T1 sequence (P47871 26-477): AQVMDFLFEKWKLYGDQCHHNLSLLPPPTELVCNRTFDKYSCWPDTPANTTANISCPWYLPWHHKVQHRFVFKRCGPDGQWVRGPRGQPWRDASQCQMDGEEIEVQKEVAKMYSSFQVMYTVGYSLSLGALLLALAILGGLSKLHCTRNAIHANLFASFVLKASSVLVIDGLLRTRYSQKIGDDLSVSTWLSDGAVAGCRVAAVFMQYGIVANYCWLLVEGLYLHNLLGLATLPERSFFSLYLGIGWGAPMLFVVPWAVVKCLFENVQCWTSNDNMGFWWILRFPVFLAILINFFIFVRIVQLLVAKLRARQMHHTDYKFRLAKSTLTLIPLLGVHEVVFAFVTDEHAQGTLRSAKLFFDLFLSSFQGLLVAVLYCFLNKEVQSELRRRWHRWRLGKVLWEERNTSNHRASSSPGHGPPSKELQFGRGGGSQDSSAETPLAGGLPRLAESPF

Turning to `CC[C@H](C)[C@H](NC(=O)[C@H](CC(C)C)NC(=O)[C@H](Cc1ccc(O)cc1)NC(=O)[C@H](CCC(=O)O)NC(=O)[C@@H](NC(=O)[C@H](Cc1ccccc1)NC(=O)[C@H](C)NC(=O)C(C)(C)NC(=O)[C@H](CCC(N)=O)NC(=O)[C@H](C)NC(=O)[C@H](CCCCNC(=O)COCCOCCNC(=O)COCCOCCNC(=O)CC[C@H](NC(=O)CCCCCCCCCCCCCCCCCCC(=O)O)C(=O)O)NC(=O)[C@H](CCCCN)NC(=O)[C@H](CC(=O)O)NC(=O)[C@H](CC(C)C)NC(=O)[C@H](CC(C)C)NC(=O)[C@@H](NC(=O)[C@H](CO)NC(=O)[C@H](Cc1ccc(O)cc1)NC(=O)[C@H](CC(=O)O)NC(=O)[C@H](CO)NC(=O)[C@@H](NC(=O)[C@H](Cc1ccccc1)NC(=O)[C@@H](NC(=O)CNC(=O)[C@H](CCC(=O)O)NC(=O)C(C)(C)NC(=O)[C@@H](N)Cc1ccc(O)cc1)[C@@H](C)O)[C@@H](C)O)[C@@H](C)CC)[C@@H](C)CC)C(=O)N[C@@H](CCC(=O)O)C(=O)NCC(=O)NCC(=O)N1CCC[C@H]1C(=O)N[C@@H](CO)C(=O)N[C@@H](CO)C(=O)NCC(N)=O` [Example 50] (H-Y[Aib]EGTFTSDYSILLDKK([AEEA-AEEA-γGlu-C20 diacid])AQ[Aib]AFIEYLIEGGPSSG-NH2), the inhibition constant Ki in assay [1] was 220 nM; in assay [2], 0.0568 nM; in assay [5], 4.71 nM. In addition, the half-maximal effective concentration (EC50) in assay [3] came out at 0.0961 nM; in assay [4] it was 0.0794 nM.
Taken in the same sequence, the figures for `CC[C@H](C)[C@H](NC(=O)[C@H](CC(C)C)NC(=O)[C@H](Cc1ccc(O)cc1)NC(=O)[C@H](CCC(=O)O)NC(=O)[C@@H](NC(=O)[C@H](Cc1ccccc1)NC(=O)[C@H](C)NC(=O)C(C)(C)NC(=O)[C@H](CCC(N)=O)NC(=O)[C@H](C)NC(=O)[C@H](CCCCNC(=O)COCCOCCNC(=O)COCCOCCNC(=O)CC[C@H](NC(=O)CCCCCCCCCCCCCCCCCCC(=O)O)C(=O)O)NC(=O)[C@H](CCCCN)NC(=O)[C@H](CC(=O)O)NC(=O)[C@H](CC(C)C)NC(=O)[C@H](CC(C)C)NC(=O)[C@@H](NC(=O)[C@H](CO)NC(=O)[C@H](Cc1ccc(O)cc1)NC(=O)[C@H](CC(=O)O)NC(=O)[C@H](CO)NC(=O)[C@@H](NC(=O)[C@H](Cc1ccccc1)NC(=O)[C@@H](NC(=O)CNC(=O)[C@H](CCC(=O)O)NC(=O)C(C)(C)NC(=O)[C@@H](N)Cc1ccc(O)cc1)[C@@H](C)O)[C@@H](C)O)[C@@H](C)CC)[C@@H](C)CC)C(=O)N[C@@H](CCC(=O)O)C(=O)NCC(=O)NCC(N)=O` [Example 51] (H-Y[Aib]EGTFTSDYSILLDKK([AEEA-AEEA-γGlu-C20 diacid])AQ[Aib]AFIEYLIEGG-NH2) were 195 nM, 0.062 nM, 5.62 nM, 0.153 nM and 0.096 nM.

For the origin of these results see patent US12252524B2, “GIP/GLP1 co-agonist compounds” (Eli Lilly and Company, priority 2018, dated 2025).
